Experimental data reported in patent US20030003057A1, “Methods for administering leuprolide by inhalation” (priority 2000, published 2003).

Assay: clinical
Details: human, in vivo
From the text: Capsules were bottled and the bottles individually enclosed in an appropriately labeled sealed foil pouch with desiccant and stored at room temperature. […] Subjects were instructed to inhale deeply and forcefully while wearing nose clips. Inhalations were followed by a 5 second breath hold prior to exhalation. […] Leuprolide was supplied in multiple dose vials as a sterile aqueous solution for injection. […] The pH was adjusted with sodium hydroxide or acetic acid. Prior to administration, each vial was visually inspected for particulate matter or discoloration. The leuprolide vials were stored at room temperature. […] The injection was given in the opposite arm to that used for blood sample for pharmacokinetic assessments. There were 2 dosing visits, followed by a post study medical 3 to 14 days after the last dose. The interval between doses was no less than 7 days. […] [table] Relative bioavailability: The bioavailability (BA) of the leuprolide formulation delivered from Turbospin, relative to intravenous injection of leuprolide, was determined from the ratio of log-transformed AUC values, according to the following equation, Relative BA=(InAUCPulmoSphere/InAUCiv) * (nominal dosePulmoSphere/doseiv), […]

- bioavailability: ~18%
SMILES: CCNC(=O)[C@@H]1CCCN1C(=O)[C@H](CCCNC(=N)N)NC(=O)[C@H](CC(C)C)NC(=O)[C@@H](CC(C)C)NC(=O)[C@H](Cc1ccc(O)cc1)NC(=O)[C@H](CO)NC(=O)[C@H](Cc1c[nH]c2ccccc12)NC(=O)[C@H](Cc1c[nH]cn1)NC(=O)[C@@H]1CCC(=O)N1 [leuprolide]
